In US11712481B2, “Lipid nanoparticle formulations” (Acuitas Therapeutics, Inc., priority 2016, dated 2023):

Columns and labels:
[1] = Particle size and polydispersity index by light scattering (Malvern Zetasizer/Nanosizer ZS); format: physicochemical; details: LNP 47.5:10:40.7:1.8
Method: Cationic lipid(s), DSPC, cholesterol and PEG-lipid were solubilized in ethanol at a desired molar ratio (e.g., 50:0 to 10:28.5 to 38.5:1.5 to 1.7 or 47.5:10:40.8:1.7). Lipid nanoparticles (LNP) were prepared at a total lipid to mRNA weight ratio of approximately 10:1 to 30:1. The mRNA was diluted to 0.2 mg/mL in 10 to 50 mM citrate buffer, pH 4. Syringe pumps were used to mix the lipid solution (i.e., LNP components solubilized in ethanol) with the mRNA aqueous solution at a ratio of about 1:5 to 1:3 (vol/vol) with total flow rates above 15 mL/min. The ethanol was then removed and the external buffer replaced with PBS by dialysis. Finally, the lipid nanoparticles were filtered through a 0.2 μm pore sterile filter. Lipid nanoparticle particle size was 55-95 nm diameter, and in some instances approximately 70-90 nm as determined by quasi-elastic light scattering using a Malvern Zetasizer Nano ZS (Malvern, UK).
(§1) LNP's were formulated by an in-line mixing process as described in Example 1. These formulations were prepared such that the mRNA to cationic lipid ratio was held constant (N/P=6.3). The size and polydispersity index data were generated using Malvern Nanosizer ZS. The diameters given are intensity weighted means. Encapsulation was determined using a fluorescent intercalating dye based assay (Ribogreen). […]
(§2) The effect of the proportion of mRNA to total lipid was investigated for a particular standard set of lipid proportions across three representative cationic lipids. LNP's were formulated by an in-line mixing process as described in Example 1. The lipid proportions were held constant at 47.5:10:40.7:1.8 for the cationic lipid, DSPC, Cholesterol and PEG-lipid respectively. The mRNA to lipid ratios are described in terms of the N/P ratio where N represents the moles of cationic lipid and P represents the moles of phosphate present as part of the nucleic acid backbone. Ratios described in this way are independent of the size of the nucleic acid. The size and polydispersity index data were generated using Malvern Nanosizer ZS. The diameters given are intensity weighted means. Encapsulation was determined using a fluorescent intercalating dye based assay (Ribogreen).

[2] = system: Photinus pyralis (firefly) luciferase mRNA expression in liver; test: Luciferase mRNA in vivo evaluation using LNP compositions, liver; details: LNP 47.5:10:40.7:1.8, 1 mg/kg, mice
Method: (§3) Luciferase mRNA in vivo evaluation studies were performed in 6-8 week old female C57BL/6 mice (Charles River) 8-10 week old CD-1 (Harlan) mice (Charles River) according to guidelines established by an institutional animal care committee (ACC) and the Canadian Council on Animal Care (CCAC). Varying doses of mRNA-lipid nanoparticle were systemically administered by tail vein injection and animals euthanized at a specific time point (e.g., 4 hours) post-administration. Liver and spleen were collected in pre-weighed tubes, weights determined, immediately snap frozen in liquid nitrogen and stored at −80° C. until processing for analysis.
For liver, approximately 50 mg was dissected for analyses in a 2 mL FastPrep tubes (MP Biomedicals, Solon Ohio). ¼″ ceramic sphere (MP Biomedicals) was added to each tube and 500 μL of Glo Lysis Buffer—GLB (Promega, Madison Wis.) equilibrated to room temperature was added to liver tissue. Liver tissues were homogenized with the FastPrep24 instrument (MP Biomedicals) at 2×6.0 m/s for 15 seconds. Homogenate was incubated at room temperature for 5 minutes prior to a 1:4 dilution in GLB and assessed using SteadyGlo Luciferase assay system (Promega). Specifically, 50 μL of diluted tissue homogenate was reacted with 50 μL of SteadyGlo substrate, shaken for 10 seconds followed by 5 minute incubation and then quantitated using a CentroXS^3 LB 960 luminometer (Berthold Technologies, Germany). The amount of protein assayed was determined by using the BCA protein assay kit (Pierce, Rockford Ill.). Relative luminescence units (RLU) were then normalized to total μg protein assayed. To convert RLU to ng luciferase a standard curve was generated with QuantiLum Recombinant Luciferase (Promega). For a representative formulation having a combination of two cationic lipids, a four-hour time point was chosen for an efficacy evaluation of the lipid formulation.
(§4) The FLuc mRNA (L-6107) from Trilink Biotechnologies will express a luciferase protein, originally isolated from the firefly, Photinus pyralis. FLuc is commonly used in mammalian cell culture to measure both gene expression and cell viability. It emits bioluminescence in the presence of the substrate, luciferin. This capped and polyadenylated mRNA is fully substituted with 5-methylcytidine and pseudouridine.
LNP's were formulated by an in-line mixing process as described in Example 1. […] The size and polydispersity index data were generated using Malvern Nanosizer ZS. The diameters given are intensity weighted means. Encapsulation was determined using a fluorescent intercalating dye based assay (Ribogreen).

[3] = Encapsulation by fluorescent intercalating dye based assay (Ribogreen); format: physicochemical
Method: as §1, §2

[4] = system: Photinus pyralis (firefly) luciferase mRNA expression in spleen; test: Luciferase mRNA in vivo evaluation using LNP compositions, spleen; details: LNP 47.5:10:40.7:1.8, 1 mg/kg, mice
Method: as §3, §4, §2

[5] = Determination of pKa of formulated lipids (TNS fluorescence assay); format: physicochemical; details: lipids of Formula I, formulated in LNP cationic lipid/DSPC/cholesterol/PEG-lipid 50/10/38.5/1.5 mol % or cationic lipid alone
Method: As described elsewhere, the pKa of formulated cationic lipids is correlated with the effectiveness of LNPs for delivery of nucleic acids (see Jayaraman et al, Angewandte Chemie, International Edition (2012), 51(34), 8529-8533; Semple et al, Nature Biotechnology 28, 172-176 (2010)). A representative preferred range of pKa is ˜5 to ˜7. […] Lipid nanoparticles comprising of cationic lipid/DSPC/cholesterol/PEG-lipid (50/10/38.5/1.5 mol %) or a cationic lipid alone in PBS at a concentration of 0.4 mM total lipid are prepared using the in-line process as described in Example 1. TNS was prepared as a 100 μM stock solution in distilled water. Vesicles were diluted to 24 μM lipid in 2 mL of buffered solutions containing 10 mM HEPES, 10 mM MES, 10 mM ammonium acetate, 130 mM NaCl, where the pH ranged from 2.5 to 11. An aliquot of the TNS solution was added to give a final concentration of 1 μM and following vortex mixing fluorescence intensity was measured at room temperature in a SLM Aminco Series 2 Luminescence Spectrophotometer using excitation and emission wavelengths of 321 nm and 445 nm. A sigmoidal best fit analysis was applied to the fluorescence data and the pKa was measured as the pH giving rise to half-maximal fluorescence intensity.

[6] = N/P 3:1, LNP cationic lipid/DSPC/Cholesterol/PEG-lipid 47.5:10:40.7:1.8

Row | PDI ([1]; N/P 3:1) | Size ([1]; N/P 3:1) [nm] | PDI ([1]; N/P 6:1) | Size ([1]; N/P 6:1) [nm] | PDI ([1]; N/P 12:1) | Size ([1]; N/P 12:1) [nm] | PDI ([1]; N/P 22:1) | Size ([1]; N/P 22:1) [nm] | Encapsulation [3, 6] [%] | Encapsulation ([3]; N/P 6:1, LNP 47.5:10:40.7:1.8) [%] | Encapsulation ([3]; N/P 12:1, LNP 47.5:10:40.7:1.8) [%] | Encapsulation ([3]; N/P 22:1, LNP 47.5:10:40.7:1.8) [%] | SMILES | Liver Luc Activity ([2]; N/P 3:1) [ng/g] | Liver Luc Activity ([2]; N/P 6:1) [ng/g] | Liver Luc Activity ([2]; N/P 12:1) [ng/g] | Liver Luc Activity ([2]; N/P 22:1) [ng/g] | Spleen Luc Activity ([4]; N/P 3:1) [ng/g] | Spleen Luc Activity ([4]; N/P 6:1) [ng/g] | Spleen Luc Activity ([4]; N/P 12:1) [ng/g] | Spleen Luc Activity ([4]; N/P 22:1) [ng/g] | further results
1 | 0.072 | 86 | 0.028 | 81 | 0.026 | 75 | 0.039 | 81 | 94 | 96 | 98 | 99 | CCCCCCCCC(CCCCCC)C(=O)OCCCCCCN(CCCCCCOC(=O)C(CCCCCC)CCCCCCCC)CCN(C)C (stereo not shown) [Compound I-5] | 7689 | 9509 | 12826 | 14538 | 188 | 236 | 184 | 247 | 
2 |  |  |  |  |  |  |  |  |  |  |  |  | CCCCCCCCCCCCC(CCCCCCCCCC)C(=O)OCCCCCCN(CCCCCCOC(=O)C(CCCCCCCCCC)CCCCCCCCCC)CCN(C)C (stereo not shown) [Compound I-39] |  |  |  |  |  |  |  |  | pKa [5]: 5.82
3 | 0.054 | 94 | 0.033 | 88 | 0.014 | 84 | 0.017 | 84 | 92 | 95 | 98 | 98 | CCCCCCCCC(=O)N(CCCN(C)C)C(CCCCCCCCC(=O)OCC(CCCC)CCCCCC)CCCCCCCCC(=O)OCC(CCCC)CCCCCC (stereo not shown) [II-9] | 6727 | 12209 | 18330 | 12634 | 831 | 642 | 514 | 439 | 
4 | 0.089 | 87 | 0.068 | 74 | 0.074 | 65 | 0.083 | 57 | 75 | 86 | 91 | 94 | CCCCCCC(CCCC)C(=O)OCCCCCCCCCN(CCCO)CCCCCCCCCOC(=O)C(CCCC)CCCCCC (stereo not shown) [III-45] | 13308 | 15395 | 16596 | 16005 | 410 | 356 | 243 | 353 | 
